Reference: patent US20140066394A1, “Substituted 6-(Benzylamino) Purine Riboside Derivatives, Use Thereof and Compositions Containing These Derivatives” (Biopatterns, S.R.O, priority 2009, published 2014)

Assays:
human osteosarcoma HOS = experiment: In vitro cytotoxicity, Calcein AM assay, HOS; assay type: cell-based; conditions: Homo sapiens, 72 hours
Source text: (§1) Low cytotoxicity of the compounds is the major property determining the cosmetic use. One of the parameters used, as the basis for cytotoxicity assays, is the metabolic activity of viable cells. For example, a microtiter assay, which uses the Calcein AM, is now widely used to quantitate cell proliferation and cytotoxicity. For instance, this assay is used in drug screening programs and in chemosensitivity testing. Because only metabolically active cells cleave Calcein AM, these assays detect viable cells exclusively. The quantity of […] Calcein AM corresponds to the number of vital cells in the culture.
(§2) Human T-lymphoblastic leukemia cell line CEM; promyelocytic HL-60 and monocytic U937 leukemias; breast carcinoma cell lines MCF-7, BT549, MDA-MB-231; glioblastoma U87MG cells; cervical carcinoma cells HELA; sarcoma cells U2OS and Saos2; hepatocellular carcinoma HepG2; mouse fibroblasts NIH3T3; mouse immortalized bone marrow macrophages B2.4 and B10A.4; P388D1 and L1210 leukemia; B16 and B16F10 melanomas; human osteosarcoma HOS; human myeloid leukemia K-562; human skin melanoma G-361 were used for routine screening of compounds. The cells were maintained in Nunc/Corning 80 cm^2 plastic tissue culture flasks and cultured in cell culture medium (DMEM with 5 g/l glucose, 2 mM glutamine, 100 U/mL penicillin, 100 μg/mL streptomycin, 10% fetal calf serum and sodium bicarbonate).
(§3) The cell suspensions that were prepared and diluted according to the particular cell type and the expected target cell density (2.500-30.000 cells per well based on cell growth characteristics) were added by pipette ([…]) into 96/well microtiter plates. Inoculates were allowed a pre-incubation period of 24 hours at 37° C. and 5% CO2 for stabilisation. Four-fold dilutions of the intended test concentration were added at time zero in 20 μl aliquots to the microtiter plate wells. Usually, the compound tested was evaluated at six 4-fold dilutions. In routine testing, the highest well concentration was 100 μM, but it can be the matter of change dependent on the agent. All drug concentrations were examined in duplicates. Incubations of cells with the tested compounds lasted for 72 hours at 37° C., in 5% CO2 atmosphere and 100% humidity. At the end of the incubation period, the cells were assayed by using Calcein AM. Ten microliters of the stock solution were pipetted into each well and incubated for 1 hour. Fluorescence (FD) was measured with the Labsystem FIA Reader Fluoroscan Ascent (UK). The tumour cell survival (GI50) was calculated using the following equitation: TCS=(FDdrug exposed well/mean FDeontrol wells)×100%. The GI50 value, the drug concentration lethal to 50% of the tumour cells, was calculated from the obtained dose response curves.
(§4) Zero cytotoxicity of the novel compounds is the basic prerequisite for agricultural and tumor-unrelated applications. The cytoxicity of the novel compounds was tested on a panel of cell lines of different histogenetic and species origin (Table 9). We show herein that equal activities were found in all tumour cell lines tested, however, the non-malignant cells, e.g. NIH3T3 fibroblasts and normal human lymphocytes, were resistant to 2,6-disubstituted purine ribosides induced cytotoxicity. The compounds listed in Tab. 9 can be divided into 2 groups. The first group contains “classical cytokinins” represented by 6-substituted purine ribosides (which are known in the prior art). The second group contains the novel 2,6-disubstituted derivatives of these compounds. […] GI50 for NIH3T3 fibroblasts and normal human lymphocytes was always higher than 100 μM. The novel derivatives show no toxicity to normal and tumour cells in concentrations about 100 μM and thus are more suitable for agricultural applications than “classical cytokinins” (6-substituted purine riboside derivatives).

neutrophils = experiment: Neutrophil degranulation, release of myeloperoxidase, ELISA; assay type: cell-based; conditions: Homo sapiens, primed neutrophils, ELISA (FIG. 4)
Method: Neutrophils were cultured at 2×10^6 cells/ml in RPMI1640 medium containing human serum antibiotics and 20 ng/ml TNFα for 10 minutes prior to addition of a range of concentrations of compound 10. Release of MPO was monitored after a 30 minute period by ELISA. Data are mean of duplicate measurements representative of 5 separate experiments.
Anti-inflammatory effects against neutrophils were determined by assessing effects of several of the compounds on neutrophil inflammatory activity (superoxide generation, secretion of chemoattractant IL8 and degranulation to release myeloperoxidase). Neutrophils were isolated from human blood to a purity of greater than 95% and were cultured in RPMI1640 medium containing 2% human AB serum, 2 mM L-glutamine and antibiotics (100 U/ml penicillin, […] streptomycin). Neutrophils were primed for 30 minutes with 50 ng/ml GM-CSF prior to treatment with the bacterial stimulant fMLP (100 ng/ml) and measurement of superoxide generation in a lucigenin based assay (see Pongracz J and Lord J M 1998, Biochem. Biophys. Res. Commun. 247, 624-629) and release of IL8 and myeloperoxidase using an ELISA method. The novel compounds were added to the culture at a range of concentrations (0.1-100 μM) 10 minutes prior to addition of fMLP. […]

[1] = system: breast carcinoma cell line MCF-7; experiment: In vitro cytotoxicity, Calcein AM assay, MCF7; assay type: cell-based, human; conditions: Homo sapiens, MCF7, 72 hours
Source text: as §1, §2, §3, §4

[2] = system: Human T-lymphoblastic leukemia cell line CEM; experiment: In vitro cytotoxicity, Calcein AM assay, CEM; assay type: cell-based; conditions: Homo sapiens, 72 hours
Source text: as §1, §2, §3, §4

[3] = system: human myeloid leukemia K-562; experiment: In vitro cytotoxicity, Calcein AM assay, K-562; assay type: cell-based; conditions: Homo sapiens, K562, 72 hours
Source text: as §1, §2, §3, §4

Question: Which results are given for `COc1cccc(CNc2nc(Cl)nc3c2ncn3C2OC(CO)C(O)C2O)c1O` (centres unmarked) [Compound 10, 2-Chloro-6-(2-hydroxy-3-methoxybenzylamino)purine riboside]?
Answer: GI50 (human osteosarcoma HOS): > 100 µM; IC50 (neutrophils): 4 µM; GI50 [1]: > 100 µM; GI50 [2]: > 100 µM; GI50 [3]: > 100 µM
